# Data published in ChEMBL document CHEMBL4312025, “Synthesis, antiproliferative activity and DNA/RNA-binding properties of mono- and bis-(1,2,3-triazolyl)-appended benzimidazo[1,2-a]quinoline derivatives” (Eur J Med Chem, 2020).
# Calls of active or inactive are those of the source. No cut-off for these calls is given here.
# Experiments:
# [1] = system: HCT-116; experiment: Growth inhibition of human HCT116 cells incubated for 72 hrs by MTT assay; assay type: functional; details: HCT-116, 72 h
# [2] = system: MCF7; experiment: Growth inhibition of human MCF7 cells incubated for 72 hrs by MTT assay; assay type: functional; details: MCF7, 72 h
# [3] = system: NCI-H460; experiment: Growth inhibition of human H460 cells incubated for 72 hrs by MTT assay; assay type: functional; details: NCI-H460, 72 h
# [4] = Growth inhibition of human HaCaT cells incubated for 72 hrs by MTT assay; assay type: cell-based
# [5] = system: Calf thymus DNA; experiment: Binding affinity to calf thymus dsDNA assessed as binding constant in sodium cacodylate buffer at pH 7 by fluorescence spectroscopy; assay type: nucleic-acid assay; details: Bos taurus
# [6] = system: Calf thymus DNA; experiment: Binding affinity to calf thymus dsDNA assessed as ratio for bound compound to polynucleotide in sodium cacodylate buffer at pH 7 by fluorescence spectroscopy based Scatchard analysis; assay type: nucleic-acid assay; details: Bos taurus
# [7] = system: Calf thymus DNA; experiment: Binding affinity to calf thymus dsDNA assessed as ratio for fluorescence intensity of compound to fluorescence intensity for compound-polynucleotide complex in sodium cacodylate buffer at pH 7 by fluorescence spectroscopy based Scatchard method; assay type: nucleic-acid assay; details: Bos taurus
# [8] = system: Calf thymus DNA; experiment: Binding affinity to calf thymus dsDNA assessed as change in melting temperature in sodium cacodylate buffer at pH 7 at compound:polynucleotide concentration ratio of 0.2 by thermal denaturation assay; assay type: nucleic-acid assay; details: Bos taurus
# [9] = system: Poly(dA-dU)oligonucleotide; experiment: Binding affinity to polyA-polyU dsRNA (unknown origin) assessed as change in melting temperature in sodium cacodylate buffer at pH 7 at compound:polynucleotide concentration ratio of 0.2 by thermal denaturation assay; assay type: nucleic-acid assay
# [10] = system: HCT-116; experiment: Cell cycle arrest in human HCT116 cells at 0.5 to 1 uM incubated for 24 and 48 hrs by propidium iodide staining based flow cytometry; assay type: functional
# [11] = Drug uptake in cytoplasm of human H460 cells assessed as perinuclear reticular staining at 1 uM incubated for 15 mins by fluorescence microscopy; assay type: ADME, cell-based; details: nci-h460, 0.25 h
# [12] = Drug uptake in nucleus of human H460 cells at 1 uM incubated for 15 mins by fluorescence microscopy; assay type: ADME, cell-based; details: nci-h460, 0.25 h
# [13] = Solubility of the compound in 0.05 M sodium cacodylate buffer with <0.01% DMSO upto 1X10'-5 mol/dm3 by UV/Visible spectra analysis; assay type: physicochemical
# [14] = system: Calf thymus DNA; experiment: Binding affinity to calf thymus ds-DNA assessed as decrease in emission intensity of the compound in sodium cacodylate buffer at pH 7 at 1X10'-6 mol/dm3 by fluorescence spectroscopy; assay type: nucleic-acid assay; details: Bos taurus
# [15] = system: Poly(dA-dU)oligonucleotide; experiment: Binding affinity to polyA-polyU dsRNA (unknown origin) assessed as decrease in emission intensity of the compound in sodium cacodylate buffer at pH 7 at 1X10'-6 mol/dm3 by fluorescence spectroscopy; assay type: nucleic-acid assay
# [16] = system: Calf thymus DNA; experiment: Binding affinity to calf thymus dsDNA assessed as stabilization of mixed DNA base pairs in sodium cacodylate buffer at pH 7 at compound:polynucleotide concentration ratio of 0.2 by thermal denaturation assay; assay type: nucleic-acid assay; details: Bos taurus
# [17] = system: HCT-116; experiment: Cytotoxicity against human HCT116 cells assessed as induction of massive cell death at 5 uM incubated for 24 to 48 hrs; assay type: functional, cell-based
# [18] = system: Calf thymus DNA; experiment: Binding affinity to calf thymus dsDNA assessed as intercalating activity by measuring weak negative ICD band between 300 and 330 nm in sodium cacodylate buffer at pH 7 at compound:polynucleotide concentration ratio of 0.1 to 0.3 by CD spectroscopy; assay type: nucleic-acid assay; details: Bos taurus
# [19] = system: Poly(dA-dU)oligonucleotide; experiment: Binding affinity to polyA-polyU dsRNA (unknown origin) assessed as intercalating activity by measuring decrease in CD spectra of polynucleotides in sodium cacodylate buffer at pH 7 at compound:polynucleotide concentration ratio of 0.1 to 0.4 by CD spectroscopy; assay type: nucleic-acid assay
# [20] = system: Calf thymus DNA; experiment: Binding affinity to calf thymus dsDNA assessed as intercalating activity by measuring decrease in CD spectra of polynucleotides in sodium cacodylate buffer at pH 7 at compound:polynucleotide concentration ratio of 0.1 to 0.3 by CD spectroscopy; assay type: nucleic-acid assay; details: Bos taurus
# [21] = Drug uptake in cytoplasm of human H460 cells assessed as perinuclear reticular staining at 10 uM incubated for 15 mins by fluorescence microscopy; assay type: ADME, cell-based; details: nci-h460, 0.25 h
# [22] = system: Poly(dA-dU)oligonucleotide; experiment: Binding affinity to polyA-polyU dsRNA (unknown origin) assessed as biphasic thermal denaturation transitions in sodium cacodylate buffer at pH 7 at compound:polynucleotide concentration ratio of 0.2 by thermal denaturation assay; assay type: nucleic-acid assay
# [23] = system: Poly(dA-dU)oligonucleotide; experiment: Binding affinity to polyA-polyU dsRNA (unknown origin) assessed as binding constant in sodium cacodylate buffer at pH 7 by fluorescence spectroscopy; assay type: nucleic-acid assay
# [24] = system: Poly(dA-dU)oligonucleotide; experiment: Binding affinity to polyA-polyU dsRNA (unknown origin) assessed as ratio for bound compound to polynucleotide in sodium cacodylate buffer at pH 7 by fluorescence spectroscopy based Scatchard method; assay type: nucleic-acid assay
# [25] = system: Poly(dA-dU)oligonucleotide; experiment: Binding affinity to polyA-polyU dsRNA (unknown origin) assessed as ratio for fluorescence intensity of compound to fluorescence intensity for compound-polynucleotide complex in sodium cacodylate buffer at pH 7 by fluorescence spectroscopy based Scatchard method; assay type: nucleic-acid assay
# [26] = Drug uptake in nucleus of human H460 cells at 10 uM incubated for 15 mins by fluorescence microscopy; assay type: ADME, cell-based; details: nci-h460, 0.25 h
# [27] = system: Poly(dA-dU)oligonucleotide; experiment: Binding affinity to polyA-polyU dsRNA (unknown origin) assessed as biphasic thermal denaturation transitions in sodium cacodylate buffer at pH 7 at compound:polynucleotide concentration ratio of 0.1 by thermal denaturation assay; assay type: nucleic-acid assay
# [28] = system: Poly(dA-dU)oligonucleotide; experiment: Binding affinity to polyA-polyU dsRNA (unknown origin) assessed as stabilization of polynucleotide in sodium cacodylate buffer at pH 7 at compound:polynucleotide concentration ratio of 0.1 to 0.2 by thermal denaturation assay; assay type: nucleic-acid assay
structure (smiles),measurement,setting,value
N#Cc1c(-n2cc(-c3cc(C(F)(F)F)cc(C(F)(F)F)c3)nn2)c2ccccc2n2c1nc1ccccc12,GI50,[1],1 µM
same,GI50,[2],4 µM
same,GI50,[3],1 µM
same,GI50 at 72 h,[4],2.2 µM
COc1cc([C@@H]2c3cc4c(cc3[C@@H](O[C@@H]3O[C@@H]5CO[C@@H](C)O[C@H]5[C@H](O)[C@H]3O)[C@H]3COC(=O)[C@H]23)OCO4)cc(OC)c1O [ETOPOSIDE],GI50,[1],5 µM
same,GI50,[2],1 µM
same,GI50,[3],0.1 µM
N#Cc1c(-n2cc(CCO)nn2)c2ccc(-n3cc(CCO)nn3)cc2n2c1nc1ccccc12,GI50,[1],59 µM
same,GI50,[2],35 µM
same,GI50,[3],≥ 100 µM
CCCCCCCCCCc1cn(-c2c(C#N)c3nc4ccccc4n3c3ccccc23)nn1,GI50,[1],35 µM
same,GI50,[2],28.5 µM
same,GI50,[3],62 µM
N#Cc1c(-n2cc(-c3cc(C(F)(F)F)cc(C(F)(F)F)c3)nn2)c2ccc(F)cc2n2c1nc1ccccc12,GI50,[1],2 µM
same,GI50,[2],4.5 µM
same,GI50,[3],2 µM
same,GI50 at 72 h,[4],2.1 µM
CCCCCc1ccc(-c2cn(-c3c(C#N)c4nc5ccccc5n4c4cc(F)ccc34)nn2)cc1,GI50,[1],7 µM
same,GI50,[2],24 µM
same,GI50,[3],32 µM
N#Cc1c(-n2cc(C3CC3)nn2)c2ccc(-n3cc(C4CC4)nn3)cc2n2c1nc1ccccc12,GI50,[1],1.6 µM
same,GI50,[2],3 µM
same,GI50,[3],3 µM
same,GI50 at 72 h,[4],3.24 µM
N#Cc1c(-n2cc(CNS(=O)(=O)c3ccc(F)cc3)nn2)c2ccccc2n2c1nc1ccccc12,GI50,[1],3.5 µM
same,GI50,[2],4.2 µM
same,GI50,[3],13 µM
same,GI50 at 72 h,[4],2.9 µM
N#Cc1c(-n2cc(CNS(=O)(=O)c3ccc(F)cc3)nn2)c2ccc(F)cc2n2c1nc1ccccc12,GI50,[1],2 µM
same,GI50,[2],3.9 µM
same,GI50,[3],3.4 µM
same,GI50 at 72 h,[4],2.9 µM
CCCCCCCCCCc1cn(-c2ccc3c(-n4cc(CCCCCCCCCC)nn4)c(C#N)c4nc5ccccc5n4c3c2)nn1,GI50,[1],16 µM
same,GI50,[2],15 µM
same,GI50,[3],17 µM
CCCCCc1ccc(-c2cn(-c3ccc4c(-n5cc(-c6ccc(CCCCC)cc6)nn5)c(C#N)c5nc6ccccc6n5c4c3)nn2)cc1,GI50,[1],8 µM
same,GI50,[2],18 µM
same,GI50,[3],16 µM
N#Cc1c(-n2cc(-c3ccc(Br)cc3)nn2)c2ccccc2n2c1nc1ccccc12,GI50,[1],25 µM
same,GI50,[2],31 µM
same,GI50,[3],59.5 µM
N#Cc1c(-n2cc(CCO)nn2)c2ccccc2n2c1nc1ccccc12,GI50,[1],3.5 µM
same,GI50,[2],4.2 µM
same,GI50,[3],13 µM
same,GI50 at 72 h,[4],3.3 µM
CCCCCc1ccc(-c2cn(-c3c(C#N)c4nc5ccccc5n4c4ccccc34)nn2)cc1,GI50,[1],34 µM
same,GI50,[2],35 µM
same,GI50,[3],32 µM
N#Cc1c(-n2cc(CCO)nn2)c2ccc(F)cc2n2c1nc1ccccc12,GI50,[1],0.6 µM
same,GI50,[2],2 µM
same,GI50,[3],1 µM
same,GI50 at 72 h,[4],0.73 µM
same,log Ks,[5],5
same,Ratio,[6],0.08
same,Ratio,[7],0.5
same,ΔTm,[8],1.3 °C
same,ΔTm,[9],0 °C
same,Activity,[10],Active
same,Drug uptake,[11],Active
same,Drug uptake,[12],Not Active
same,solubility,[13],Soluble
same,Activity,[14],Active
same,Activity,[15],Active
same,Activity,[16],Active
same,Activity,[17],Active
same,Activity,[18],Active
same,Activity,[19],Active
same,Activity,[20],Active
N#Cc1c(-n2cc(C3CC3)nn2)c2ccccc2n2c1nc1ccccc12,GI50,[1],10 µM
same,GI50,[2],3 µM
same,GI50,[3],52 µM
N#Cc1c(-n2cc(CCCCl)nn2)c2ccccc2n2c1nc1ccccc12,Drug uptake,[21],Active
same,ΔTm,[22],0.4 to 25.3 °C
same,GI50,[1],1 µM
same,GI50,[2],1.5 µM
same,GI50,[3],2 µM
same,GI50 at 72 h,[4],1 µM
same,log Ks,[5],6.1
same,Ratio,[6],0.4
same,Ratio,[7],0.3
same,log Ks,[23],6
same,Ratio,[24],0.3
same,Ratio,[25],0.2
same,ΔTm,[8],1.2 °C
same,Drug uptake,[26],Not Active
same,solubility,[13],Soluble
same,Activity,[14],Active
same,Activity,[15],Active
same,ΔTm,[27],0.2 to 17 °C
same,Activity,[16],Active
same,Activity,[28],Active
same,Activity,[18],Active
same,Activity,[19],Active
same,Activity,[20],Active
CCCCCCCCCCc1cn(-c2c(C#N)c3nc4ccccc4n3c3cc(F)ccc23)nn1,GI50,[1],3 µM
same,GI50,[2],5 µM
same,GI50,[3],7 µM
same,GI50 at 72 h,[4],3.5 µM
N#Cc1c(-n2cc(CCCCl)nn2)c2ccc(-n3cc(CCCCl)nn3)cc2n2c1nc1ccccc12,GI50,[1],2.5 µM
same,GI50,[2],6.9 µM
same,GI50,[3],3 µM
same,GI50 at 72 h,[4],3.2 µM
same,log Ks,[5],5.4
same,Ratio,[6],0.1
same,Ratio,[7],0.8
same,ΔTm,[8],1.5 °C
same,ΔTm,[9],0 °C
same,Drug uptake,[11],Active
same,Drug uptake,[12],Not Active
same,solubility,[13],Soluble
same,Activity,[14],Active
same,Activity,[15],Active
same,Activity,[16],Active
same,Activity,[18],Active
same,Activity,[19],Active
same,Activity,[20],Active
